Data on six compounds can be found in ChEMBL document CHEMBL5126567, “Synthesis of novel immunomodulatory 1,4-disubstituted bis-1,2,3-triazoles by using click chemistry and their intracellular mechanism of action” (Bioorg Med Chem Lett, 2022).

Data set [1] deals with J774.2. Put plainly: Inhibition of PI3K/AKT signalling pathway in LPS-induced mouse J774.2 cells assessed as decrease in phosphorylated PI3K level at 10 ug/mL after 24 hrs by flow cytometry. In kind it is cell-based. Conditions: dose 10.0 µg/ml.
Data set [2] concerns J774.2. Nature of the data set: Antiinflammatory activity in LPS-induced mouse J774.2 cells assessed as decrease in IL6 level at 1 to 10 ug/mL measured after 24 hrs by ELISA. It is filed as functional, cell-based. As to conditions: dose 1-10 µg/ml. On the technique in general: An ELISA detects its analyte on a solid surface through an enzyme-linked reagent.
In data set [3] the test system is J774.2. Nature of the data set: Cytotoxicity against mouse J774.2 cells assessed as cell viability. It is filed as toxicity, cell-based.
The test system of data set [4] is J774.2. Put plainly: Antiinflammatory activity in LPS-induced mouse J774.2 cells assessed as decrease in GMCSF level at 1 to 10 ug/mL measured after 24 hrs by ELISA. Conditions: dose 1-10 µg/ml. It is filed as functional, cell-based.
Data set [5] concerns J774.2. Nature of the data set: Antiinflammatory activity in LPS-induced mouse J774.2 cells assessed as decrease in TNF-alpha level at 1 to 10 ug/mL measured after 24 hrs by ELISA. It is filed as functional, cell-based. Conditions: dose 1-10 µg/ml.

SMILES strings stand for the structures. Activity calls are given as the source filed them. No cut-off for these calls is given here.

`O=C(Cn1cc(C2CC2)nn1)Nc1ccccc1NC(=O)Cn1cc(C2CC2)nn1`: in the data set with J774.2 [1], the inhibition result was “Active”. The outcome with J774.2 [2], in the data set on J774.2 [4] and in the data set on J774.2 [5] was Active. Also, the Activity result in the data set on J774.2 [3] was “Non-Toxic”.

On to `CCCC(C)c1cn(CC(=O)Nc2ccccc2NC(=O)Cn2cc(C(C)CCC)nn2)nn1` (stereo not drawn), for which the inhibition result with J774.2 [1] was “Active”. In addition, the result in the data set on J774.2 [2], with J774.2 [4] and in the data set on J774.2 [5] was Active. Moreover, the Activity entry in the data set with J774.2 [3] was “Non-Toxic”.

In the case of `O=C(Cn1cc(CC2CCCCC2)nn1)Nc1ccccc1NC(=O)Cn1cc(CC2CCCCC2)nn1`, the inhibition result in the data set on J774.2 [1] is “Active”. The result with J774.2 [2], in the data set with J774.2 [4] and with J774.2 [5] was Active. Further, the Activity entry in the data set with J774.2 [3] is “Non-Toxic”.

Consider `O=C(Cn1cc(C2CCCC2)nn1)Nc1ccccc1NC(=O)Cn1cc(C2CCCC2)nn1`, for which the inhibition result with J774.2 [1] is “Active”. In addition, the outcome with J774.2 [2], with J774.2 [4] and with J774.2 [5] was Active. Also, the Activity entry with J774.2 [3] is “Non-Toxic”.

In the case of `O=C(Cn1cc(-c2ccccc2)nn1)Nc1ccccc1NC(=O)Cn1cc(-c2ccccc2)nn1`, the result with J774.2 [2], in the data set with J774.2 [4] and with J774.2 [5] was Active. Also, in the data set on J774.2 [3], the Activity entry is recorded as “Non-Toxic”.

Regarding `CCOC(=O)c1cn(CC(=O)Nc2ccccc2NC(=O)Cn2cc(C(=O)OCC)nn2)nn1`, the result in the data set on J774.2 [2], in the data set with J774.2 [4] and in the data set on J774.2 [5] was Active. In addition, in the data set with J774.2 [3], the Activity entry is listed as “Non-Toxic”.
